The record followed here is patent US4875922A, “Pyrimidine derivatives” (Imperial Chemical Industries PLC, priority 1986, dated 1989).

Structures are written as SMILES.

In one experiment the test system is Barley. Put plainly: Whole plant screen for plant growth regulator activity, barley (BR). Type of experiment: in vivo, Barley (Atem). The following applies: BR, 4000 ppm (4 kg/ha), visual score after 2-6 weeks; for T = Tillering or side shooting: * = decrease in tillering. A digest of the protocol: (§1)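 Growth-regulator effects were judged by eye on glasshouse plants 2-6 weeks post-spray (timing varying with season), using formulation blanks for comparison. Application rate was 4000 ppm, equivalent to 4 kg/ha in 1000 l/ha.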

The subject of a further experiment is Wheat. Nature of the experiment: Whole plant screen for plant growth regulator activity, wheat (WW). Type of experiment: in vivo, Wheat (Timmo). The following applies: WW, 4000 ppm (4 kg/ha), visual score after 2-6 weeks; for T = Tillering or side shooting: * = decrease in tillering. A digest of the protocol:
as §1

Experiment [1] has as its system Rice. Put plainly: Whole plant screen for plant growth regulator activity, rice (RC). Type of experiment: in vivo, Rice (Ishikari). The following applies: 4000 ppm (4 kg/ha), visual score after 2-6 weeks. A digest of the protocol: as §1
The next experiment deals with Maize. Put plainly: Whole plant screen for plant growth regulator activity, maize (MZ). The format is in vivo, Maize (Earliking). The following applies: 4000 ppm (4 kg/ha), visual score after 2-6 weeks. As for the experimental part: Compounds 1 to 3 in Table 1 were tested for plant growth regulator activity against five species for various growth effects relevant to plant growth regulation.
The plant species used in this screen are presented in Table II with the leaf stage at which they were sprayed. Each chemical was applied at 4000 ppm (4 kg/ha in a 1000 l/ha field volume) using a tracksprayer and a SS8004E (Teejet) nozzle.
After spray the plants were grown in a glasshouse with 25° C. day/22° C. night temperatures and supplementary lighting was supplied when necessary (from mercury vapour lamps), to provide a 16 hour photoperiod. The exception to this were the temperate cereals, wheat and barley which were grown in 16° C. day/13° C. night temperatures.
After 2-6 weeks in the glasshouse, depending on the time of year, the plants were visually assessed for morphological characteristics. Formulation blanks were used as controls to assess the plants. […]

In a further experiment the test system is Tomato. Nature of the experiment: Whole plant screen for plant growth regulator activity, tomato (TO). The format is in vivo, Tomato (Ailsa Craig). The following applies: 4000 ppm (4 kg/ha), visual score after 2-6 weeks. A digest of the protocol: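 Plant growth regulation scored visually 2–6 weeks post-spray, relative to formulation-blank controls, with growth at 25/22 °C day/night under 16 h light. Treatment: 4000 ppm (4 kg/ha, 1000 l/ha volume) track-sprayed onto Ailsa Craig tomato at the 2–2½ leaf stage, grown singly in 3-inch peat pots.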

Experiment [2] concerns Rice. Put plainly: Intermediate Retardant Test, rice. Type of experiment: in vivo, Rice (Ishikari). The following applies: Oryza sativa, 672 h, overall spray, approximately 28 days, Table VI, read-out: Percentage Reduction in Height of Rice (Compared to formulation blank). A digest of the protocol:
(§2)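 Overall spray at 500 and 2000 ppm (0.5 and 2 kg/ha^-1 at 1000 l/ha^-1); for apples, a 2000 ppm foliar-only spray was also compared with a 2000 ppm root drench. Rice grew in flooded 4" paddy pots, barley and apples in 4" pots. About 28 days after treatment, height (to top-most ligule, or to apex for apples) was recorded as % reduction versus formulation blank.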

Another experiment has as its system Spring Barley. Put plainly: Intermediate Retardant Test, spring barley. Type of experiment: in vivo, Spring Barley (Atem/kym). The note with it: Hordeum vulgare, 672 h, overall spray, approximately 28 days, Table VII, read-out: Percentage Reduction in Height of Spring Barley (Compared to formulation blank). A digest of the protocol:
as §2

Another experiment has as its system Apples. Put plainly: Intermediate Retardant Test, apples, foliar spray compared with root drench. Type of experiment: in vivo, Apples (Red Delicious). The note with it: 672 h, approximately 28 days, Table IX, read-out: Percentage Reduction in Height of Apples (Compared to formulation blank); for percent reduction in plant height at 2000 ppm: 2000 ppm (Foliar); for percent reduction in plant height at 2000 µg/mL: soil, 2000 pmm (Root), root drench. A digest of the protocol:
as §2

In a further experiment the test system is Apple. Put plainly: Whole plant screen for plant growth regulator activity, apple (AP). The format is in vivo, Apple (Red Delicious). The following applies: 4000 ppm (4 kg/ha), visual score after 2-6 weeks. A digest of the protocol:
as §1

As to `CCC(C)CCC(O)(c1cncnc1)C(C)C` (stereo not drawn) [Compound 6, 2-Methyl-1-(3-methylpentyl)-1-(pyrimidin-5-yl)propan-1-ol], in the experiment on Barley, the “G = Greening effect” value is 1 (10-30%), the “I = Interligular or internodal length reduction” value is given as 3 (61-100%) and the “R = Retardation” value is 2 (31-60%). Moreover, in the experiment on Wheat, the “I = Interligular or internodal length reduction” value is 3 (61-100%), the “R = Retardation” value is 3 (61-100%) and the “T = Tillering or side shooting” value is on record as 1 (10-30%). For the same compound, in the experiment on Rice [1], the “I = Interligular or internodal length reduction” value is recorded as 2 (31-60%) and the “R = Retardation” value was 2 (31-60%). In the experiment with Maize, the “G = Greening effect” value was 1 (10-30%), the “I = Interligular or internodal length reduction” value is listed as 2 (31-60%) and the “R = Retardation” value is given as 2 (31-60%). Further, in the experiment with Tomato, the “G = Greening effect” value is reported as 2 (31-60%), the “I = Interligular or internodal length reduction” value is given as 2 (31-60%) and the “R = Retardation” value is recorded as 2 (31-60%). Besides, in the experiment with Rice [2], the Percent reduction in rice height vs formulation blank at 500 ppm came to 26% and the Percent reduction in rice height vs formulation blank at 2000 ppm is 50%. Also, in the experiment on Spring Barley, the percent reduction in plant height at 500 ppm amounted to 22% and the percent reduction in plant height at 2000 ppm was found to be 57%. Moreover, in the experiment on Apples, the percent reduction in plant height at 2000 ppm worked out at 18.8% and the percent reduction in plant height at 2000 µg/mL stood at 72.1%.
In the case of `CCCC#CC(O)(c1cncnc1)C(C)(C)C` (stereo not drawn) [Compound 14, 2,2-Dimethyl-1-(pent-1-yne)-1-(pyrimidin-5yl)propan-1ol], in the experiment on Barley, the “G = Greening effect” value is reported as 2 (31-60%), the “I = Interligular or internodal length reduction” value is recorded as 3 (61-100%), the “R = Retardation” value is 3 (61-100%) and the “T = Tillering or side shooting” value is reported as 3 (61-100%). Moreover, in the experiment with Wheat, the “G = Greening effect” value is reported as 2 (31-60%), the “I = Interligular or internodal length reduction” value was 3 (61-100%), the “R = Retardation” value is on record as 3 (61-100%) and the “T = Tillering or side shooting” value is on record as 3 (61-100%). In the experiment on Rice [1], the “G = Greening effect” value is 2 (31-60%), the “I = Interligular or internodal length reduction” value is 2 (31-60%) and the “R = Retardation” value is listed as 3 (61-100%). In the experiment on Maize, the “A = Apical damage” value is listed as 1 (10-30%), the “G = Greening effect” value is 2 (31-60%), the “I = Interligular or internodal length reduction” value is 3 (61-100%) and the “R = Retardation” value is on record as 2 (31-60%). Further, in the experiment on Apple, the “G = Greening effect” value was 3 (61-100%), the “I = Interligular or internodal length reduction” value is reported as 3 (61-100%) and the “R = Retardation” value is listed as 3 (61-100%). Besides, the “T = Tillering or side shooting” value with Apple (* = decrease in tillering) was 1 (10-30%). Besides, in the experiment with Tomato, the “G = Greening effect” value was 2 (31-60%), the “I = Interligular or internodal length reduction” value is on record as 2 (31-60%) and the “R = Retardation” value is given as 3 (61-100%). Further, in the experiment on Rice [2], the Percent reduction in rice height vs formulation blank at 500 ppm is 63% and the Percent reduction in rice height vs formulation blank at 2000 ppm was found to be 76%. For the same compound, in the experiment with Spring Barley, the percent reduction in plant height at 500 ppm came to 51% and the percent reduction in plant height at 2000 ppm was 68%. In the experiment with Apples, the percent reduction in plant height at 2000 ppm worked out at 23% and the percent reduction in plant height at 2000 µg/mL was 58.5%.
On to `CC(C)CCC(O)(c1cncnc1)C(C)C` (stereo not drawn) [Compound 13, 2-Methyl-1-(3-methylbutyl)-1-(pyrimidin-5-yl)-propan-1-ol], for which, in the experiment with Barley, the “G = Greening effect” value is listed as 2 (31-60%), the “I = Interligular or internodal length reduction” value is listed as 3 (61-100%), the “R = Retardation” value was 2 (31-60%) and the “T = Tillering or side shooting” value is listed as 2 (31-60%). In the experiment with Wheat, the “I = Interligular or internodal length reduction” value is on record as 3 (61-100%), the “R = Retardation” value is 2 (31-60%) and the “T = Tillering or side shooting” value is on record as 1 (10-30%). In the experiment on Rice [1], the “G = Greening effect” value was 1 (10-30%), the “I = Interligular or internodal length reduction” value is given as 2 (31-60%) and the “R = Retardation” value was 2 (31-60%). In the experiment with Apple, the “G = Greening effect” value is 2 (31-60%), the “I = Interligular or internodal length reduction” value was 3 (61-100%) and the “R = Retardation” value is 3 (61-100%). Moreover, in the experiment with Tomato, the “I = Interligular or internodal length reduction” value is 2 (31-60%) and the “R = Retardation” value is listed as 2 (31-60%). Besides, in the experiment on Rice [2], the Percent reduction in rice height vs formulation blank at 500 ppm stood at 8% and the Percent reduction in rice height vs formulation blank at 2000 ppm amounted to 9%. In the experiment with Spring Barley, the percent reduction in plant height at 500 ppm was 2% and the percent reduction in plant height at 2000 ppm stood at 11%. In the experiment with Apples, the percent reduction in plant height at 2000 ppm amounted to 7% and the percent reduction in plant height at 2000 µg/mL came to 70%.
Consider `CC(C)C(O)(C#CCCCCl)c1cncnc1` (stereo not drawn) [Compound 8, 2-Methyl-1-(5-chloropen-1-yne)-1-(pyrimidin-5-yl)-propan-1-ol], for which the “G = Greening effect” value is reported as 2 (31-60%) with Barley; 2 (31-60%) in the experiment on Wheat; 1 (10-30%) in the experiment with Maize; 2 (31-60%) in the experiment on Apple; 2 (31-60%) with Tomato. Also, the “I = Interligular or internodal length reduction” value in the experiment on Barley is recorded as 2 (31-60%); with Wheat, 3 (61-100%); in the experiment with Maize it was 3 (61-100%); in the experiment with Apple, 3 (61-100%); in the experiment on Tomato, 3 (61-100%). Besides, the “R = Retardation” value with Barley, with Wheat, in the experiment on Maize, with Apple and in the experiment on Tomato was 3 (61-100%) each time. In addition, the results for the “T = Tillering or side shooting” value in the experiment on Barley, in the experiment with Wheat and in the experiment with Maize (* = decrease in tillering) were 1 (10-30%), 3 (61-100%) and 1 (10-30%), respectively. For the same compound, the Percent reduction in rice height vs formulation blank at 500 ppm in the experiment with Rice [2] was 43%. Besides, in the experiment with Rice [2], the Percent reduction in rice height vs formulation blank at 2000 ppm is 54%. The percent reduction in plant height at 500 ppm in the experiment with Spring Barley worked out at 31%. Moreover, the results for the percent reduction in plant height at 2000 ppm in the experiment with Spring Barley and in the experiment with Apples were 63% and 6%, respectively. Also, the percent reduction in plant height at 2000 µg/mL with Apples came to 49.3%.
